What was measured:
[1] = tested on: dry eye model of mice induced by scopolamine hydrobromide solution; assay: Dry eye model of mice induced by subcutaneous scopolamine hydrobromide solution, eye drop administration; type: in vivo, C57BL/6 mice
Experimental: The grouping day was recorded as DO. After divided into groups, Animals in each group were subjected to modeling, eye drop administration, scoring of corneal fluorescent staining, tear secretion measurement, etc., according to the experimental settings.

[2] = 25° C. competition experiment of water activity (suspension and beating, XRPD); type: physicochemical; settings: competition of crystal form B and crystal form C
Experimental: If the solution was clear, the compound was continued to add until the solution was saturated. […] After addition of a magnetic stir bar, the above suspension sample was placed on a constant temperature mixer (25° C., 700 rpm) for shaking.
And the products obtained with water activity of 0.9 and 1.0 were characterized after drying, and the two were almost the same.

[3] = Pre-stability experiment of the crystal form (influencing factors and accelerated conditions, crystal form by XRPD); type: physicochemical
Experimental: X-Ray Powder Diffractometer (XRPD) Method in the Present Disclosure
Instrument model: Bruker D8 Advance X-ray diffractometer
Test method: About 10 mg of sample is used for XRPD test.
The detailed XRPD parameters are as follows:
The samples were fully exposed. Samples under the test condition of 40° C., 25° C./92.5% RH, light, light control were taken at 5 days and 10 days for analysis, and samples under the accelerated condition were taken at 1 month, 2 months and 3 months for analysis.

[4] = tested on: dry eye model of rat induced by hypertonic sodium chloride solution; assay: Hyperosmolar dry eye model of rats induced by hypertonic sodium chloride solution, eye drop administration; type: in vivo, SD rats
Experimental: 20 female SD rats qualified for the adaptability observation were subjected to the scoring of fluorescent staining of the cornea and measurement of tear secretion amount of both eyes for the animals, and animals with abnormalities of problematic fluorescent staining of the cornea and significant differences in tear secretion amount were excluded.
A pipette was used to draw 20 μL of sodium chloride solution (osmotic pressure of 500 mOsmol/L), which was dropped into the conjunctival sac of both eyes of the animal, 5 times/day, 20 μL/time, with an interval of about 2 hours between each time, for 28 consecutive days. After dropping the solution, the animal's eyelids were passively closed for about 90 s. On the 14th day of the modeling period, the animals were subjected to scoring of fluorescent staining of the cornea of both eyes and measurement of tear secretion amount, and the data were compared with the basic data, and the animals with significant differences in tear secretion amount of both eyes were selected for grouping.
, the tear secretion amount of both eyes was measured, and the scoring of fluorescent staining of the cornea […]

[5] = Tolerability of eye drops after administration in animals; type: in vivo; settings: eye drops with the highest concentration
[6] = mice, 1 mg/mL eye drops (G3), D0 (grouping day)
[7] = mice, 1 mg/mL eye drops (G3), D7
[8] = mice, 1 mg/mL eye drops (G3), D12
[9] = mice, 2.5 mg/mL eye drops (G4), D0 (grouping day)
[10] = mice, 2.5 mg/mL eye drops (G4), D7
[11] = mice, 2.5 mg/mL eye drops (G4), D12
[12] = mice, 5 mg/mL eye drops (G5), D0 (grouping day)
[13] = mice, 5 mg/mL eye drops (G5), D7
[14] = mice, 5 mg/mL eye drops (G5), D12
[15] = rats, 1 mg/mL eye drops (G2), D0
[16] = rats, 1 mg/mL eye drops (G2), D14
[17] = rats, 1 mg/mL eye drops (G2), D21
[18] = rats, 5 mg/mL eye drops (G3), D0
[19] = rats, 5 mg/mL eye drops (G3), D14
[20] = rats, 5 mg/mL eye drops (G3), D21

CC(C)(O)c1ccc(-c2cnc(C(C)(C)O)c(N)c2)cc1N
Therapeutic effect on the dry eye model of mice (tear secretion amount and corneal damage) ([1]; eye drops 1 mg/mL, 2.5 mg/mL, 5 mg/mL): good therapeutic effect | Scoring of fluorescent staining of the cornea [1, 6]: 0.50 ± 0.97 | Tear secretion amount: wetted length of phenol red cotton thread [1, 6]: 4.54 ± 1.84 mm | Scoring of fluorescent staining of the cornea [1, 7]: 2.56 ± 1.50##**& | Tear secretion amount: wetted length of phenol red cotton thread [1, 7]: 2.13 ± 0.69##**& mm | Scoring of fluorescent staining of the cornea [1, 8]: 2.31 ± 1.35##**& | Tear secretion amount: wetted length of phenol red cotton thread [1, 8]: 2.72 ± 0.91##**&& mm | Scoring of fluorescent staining of the cornea [1, 9]: 0.31 ± 0.87 | Tear secretion amount: wetted length of phenol red cotton thread [1, 9]: 4.30 ± 1.08 mm | Scoring of fluorescent staining of the cornea [1, 10]: 2.88 ± 2.53 | Tear secretion amount: wetted length of phenol red cotton thread [1, 10]: 2.14 ± 0.69##**& mm | Scoring of fluorescent staining of the cornea [1, 11]: 2.56 ± 1.55 | Tear secretion amount: wetted length of phenol red cotton thread [1, 11]: 2.58 ± 0.82##**& mm | Scoring of fluorescent staining of the cornea [1, 12]: 0.25 ± 0.58 | Tear secretion amount: wetted length of phenol red cotton thread [1, 12]: 4.28 ± 1.41 mm | Scoring of fluorescent staining of the cornea [1, 13]: 2.38 ± 2.09##**& | Tear secretion amount: wetted length of phenol red cotton thread [1, 13]: 2.73 ± 0.48##**&& mm | Scoring of fluorescent staining of the cornea [1, 14]: 2.38 ± 1.20##**& | Tear secretion amount: wetted length of phenol red cotton thread [1, 14]: 2.85 ± 0.57##**&& mm | Concentration of eye drops with the best therapeutic effect ([1]; mice, combining tear secretion amount and corneal staining score): 5 mg/mL | Relative stability of crystal forms (conclusion) [2]: more stable than the crystal form C of the compound of formula (I) | Crystal Form ([3]; 25° C./92.5% RH (open), 5 days): Crystal Form B | Crystal Form ([3]; 25° C./92.5% RH (open), 10 days): Crystal Form B | Crystal Form ([3]; 40° C. (open), 1 month): Crystal Form B | Crystal Form ([3]; 40° C. (open), 10 days): Crystal Form B | Crystal Form ([3]; 40° C./75% RH (open), 1 month): Crystal Form B | Crystal Form ([3]; 40° C./75% RH (open), 2 month): Crystal Form B | Crystal Form ([3]; 40° C./75% RH (open), 3 month): Crystal Form B | Crystal Form ([3]; 60° C./75% RH (open), 1 month): Crystal Form B | Crystal Form ([3]; 60° C./75% RH (open), 2 month): Crystal Form B | Crystal Form ([3]; 60° C./75% RH (open), 3 month): Crystal Form B | Stability of the crystal form (conclusion) ([3]; influencing factors 10 days, 40° C. 1 month, 40° C./75% RH and 60° C./75% RH 3 months): stable | Crystal Form ([3]; light (visible light intensity 5000 lux and ultraviolet intensity 90 W/cm^2, open), 10 days): Crystal Form B | Crystal Form ([3]; light control, 10 days): Crystal Form B | Therapeutic effect on the dry eye model of rat (tear secretion amount, corneal damage, tear film breakup time) ([4]; eye drops 1 mg/mL, 5 mg/mL): good therapeutic effect | Scoring of fluorescent staining of the cornea [4, 15]: 0.00 ± 0.00 | Tear secretion amount: wetted length of phenol red cotton thread [4, 15]: 13.78 ± 5.25 mm | Scoring of fluorescent staining of the cornea [4, 16]: 4.75 ± 3.73 | Tear secretion amount: wetted length of phenol red cotton thread [4, 16]: 8.12 ± 2.81 mm | Scoring of fluorescent staining of the cornea [4, 17]: 3.00 ± 2.78 | Tear secretion amount: wetted length of phenol red cotton thread [4, 17]: 9.24 ± 4.07 mm | Scoring of fluorescent staining of the cornea [4, 18]: 0.13 ± 0.35 | Tear secretion amount: wetted length of phenol red cotton thread [4, 18]: 13.87 ± 4.45 mm | Scoring of fluorescent staining of the cornea [4, 19]: 3.88 ± 2.36 | Tear secretion amount: wetted length of phenol red cotton thread [4, 19]: 7.16 ± 2.77 mm | Scoring of fluorescent staining of the cornea [4, 20]: 1.75 ± 1.49 | Tear secretion amount: wetted length of phenol red cotton thread [4, 20]: 11.37 ± 3.26 mm | Tear film breakup time ([4]; rats, eye drops): improved | Discomfort in animals after administration of the eye drops [5]: do not cause any discomfort
